According to paper PMC7407272, “Induction of Lysosome Membrane Permeabilization as a Therapeutic Strategy to Target Pancreatic Cancer Stem Cells” (Cancers, 2020):

Key:
PDAC1 3D spheres = experiment: Viability curves on PDAC1 3D spheres; format: cell-based; details: Homo sapiens, 30 h
Source text: The PDAC patient-derived xenograft (PDX) Panc354 (referred to hereafter as PDAC3) was obtained from Dr. Manuel Hidalgo under a Material Transfer Agreement with the Spanish National Cancer Centre (CNIO), Madrid, Spain (Reference no. I409181220BSMH). PDAC1, PDAC2 and PDAC4 PDXs were established from primary patient resected tumors. Samples were provided by the BioBank Hospital Ramón y Cajal-IRYCIS (PT13/0010/0002), integrated in the Spanish National Biobanks Network and they were processed following standard operating procedures with the appropriate approval of the Ethical and Scientific Committees (Control no. No. Control: DE-BIOB-73 AC65, RG.BIOB-96 REV, and CI-BIOB-08-10-01 rev), with informed consent and according to Declaration of Helsinki principles. […]
Pancreatic CSC spheres were generated as previously described in ultra-low attachment plates (Corning) using CSC media: serum-free DMEM/F12 medium (1:1; #21331-020; Gibco, Waltham, MA, USA), supplemented with Pen/Strep (1:100; #1500-063; Gibco, Waltham, MA, USA), Fungizone (1:250; #15290-018; Gibco), L-Glutamine (1:100; #25030-024; Gibco, Waltham, MA, USA), B-27 (1:50; #17504-044; Gibco, Waltham, MA, USA) and basic fibroblast growth factor (FGF-b) (1:5000; Gibco, Waltham, MA, USA). […] To quantify spheres of > 40 μm, 1 mL of sample volume was analyzed with a CASY® Cell Counter (Roche Applied Sciences, Mannheim, Germany). […]

MARK1 = molecular target: T1, MARK1 (Homo sapiens, UniProt Q9P0L2); experiment: KINOMEscan; format: binding; details: read-out: % Ctrl
T1 construct: purchased DiscoveRx KINOMEscan

CDK4-cyclinD1 = molecular target: T2, CDK4-cyclinD1 (Homo sapiens, UniProt P11802); experiment: KINOMEscan; format: binding; details: read-out: % Ctrl
T2 construct: purchased DiscoveRx KINOMEscan

IGF1R = molecular target: T3, IGF1R (Homo sapiens, UniProt P08069); experiment: KINOMEscan; format: binding; details: read-out: % Ctrl
T3 construct: purchased DiscoveRx KINOMEscan
T3 sequence (P08069 31-1367): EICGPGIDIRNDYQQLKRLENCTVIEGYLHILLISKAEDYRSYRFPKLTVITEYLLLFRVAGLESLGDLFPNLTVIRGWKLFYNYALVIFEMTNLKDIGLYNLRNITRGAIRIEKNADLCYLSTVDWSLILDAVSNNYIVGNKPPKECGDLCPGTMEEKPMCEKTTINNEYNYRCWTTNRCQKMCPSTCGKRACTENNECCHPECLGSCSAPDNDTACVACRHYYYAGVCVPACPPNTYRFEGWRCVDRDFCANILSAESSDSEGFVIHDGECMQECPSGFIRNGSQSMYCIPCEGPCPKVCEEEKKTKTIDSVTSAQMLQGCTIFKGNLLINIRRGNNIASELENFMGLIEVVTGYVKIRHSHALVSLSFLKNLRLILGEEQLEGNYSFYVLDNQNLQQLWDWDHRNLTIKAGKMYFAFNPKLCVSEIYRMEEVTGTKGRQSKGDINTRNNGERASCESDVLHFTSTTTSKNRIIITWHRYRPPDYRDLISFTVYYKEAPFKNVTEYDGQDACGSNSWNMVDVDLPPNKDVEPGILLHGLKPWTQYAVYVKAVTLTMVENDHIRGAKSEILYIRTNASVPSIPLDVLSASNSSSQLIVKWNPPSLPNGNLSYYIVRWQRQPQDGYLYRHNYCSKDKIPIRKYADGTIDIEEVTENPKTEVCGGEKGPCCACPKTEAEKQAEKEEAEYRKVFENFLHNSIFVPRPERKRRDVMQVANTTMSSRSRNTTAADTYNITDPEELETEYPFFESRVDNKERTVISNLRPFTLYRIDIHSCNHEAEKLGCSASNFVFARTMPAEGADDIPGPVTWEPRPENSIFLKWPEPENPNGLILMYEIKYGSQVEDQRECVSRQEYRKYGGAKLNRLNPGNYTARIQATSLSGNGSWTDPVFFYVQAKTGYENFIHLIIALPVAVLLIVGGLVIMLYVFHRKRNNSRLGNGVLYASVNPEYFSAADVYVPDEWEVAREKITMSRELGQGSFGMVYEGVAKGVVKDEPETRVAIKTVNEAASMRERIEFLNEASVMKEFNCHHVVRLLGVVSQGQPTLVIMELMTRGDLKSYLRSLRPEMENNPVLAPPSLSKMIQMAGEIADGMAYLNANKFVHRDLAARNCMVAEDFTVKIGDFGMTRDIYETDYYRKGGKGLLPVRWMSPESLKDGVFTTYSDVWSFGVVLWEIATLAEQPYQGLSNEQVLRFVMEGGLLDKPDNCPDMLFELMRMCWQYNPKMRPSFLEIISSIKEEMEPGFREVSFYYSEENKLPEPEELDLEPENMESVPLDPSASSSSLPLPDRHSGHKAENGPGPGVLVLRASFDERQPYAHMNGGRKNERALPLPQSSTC

LCK = molecular target: T4, LCK (Homo sapiens, UniProt P06239); experiment: KINOMEscan; format: binding; details: read-out: % Ctrl
T4 construct: purchased DiscoveRx KINOMEscan

LATS1 = molecular target: T5, LATS1 (Homo sapiens, UniProt O95835); experiment: KINOMEscan; format: binding; details: read-out: % Ctrl
T5 construct: purchased DiscoveRx KINOMEscan

YANK2 = molecular target: T6, YANK2 (Homo sapiens, UniProt Q9NY57); experiment: KINOMEscan; format: binding; details: read-out: % Ctrl
T6 construct: purchased DiscoveRx KINOMEscan

EPHA7 = molecular target: T7, EPHA7 (Homo sapiens, UniProt Q15375); experiment: KINOMEscan; format: binding; details: read-out: % Ctrl
T7 construct: purchased DiscoveRx KINOMEscan

CLK1 = molecular target: T8, CLK1 (Homo sapiens, UniProt P49759); experiment: KINOMEscan; format: binding; details: read-out: % Ctrl
T8 construct: purchased DiscoveRx KINOMEscan

TAOK2 = molecular target: T9, TAOK2 (Homo sapiens, UniProt Q9UL54); experiment: KINOMEscan; format: binding; details: read-out: % Ctrl
T9 construct: purchased DiscoveRx KINOMEscan
T9 sequence (Q9UL54 whole entry): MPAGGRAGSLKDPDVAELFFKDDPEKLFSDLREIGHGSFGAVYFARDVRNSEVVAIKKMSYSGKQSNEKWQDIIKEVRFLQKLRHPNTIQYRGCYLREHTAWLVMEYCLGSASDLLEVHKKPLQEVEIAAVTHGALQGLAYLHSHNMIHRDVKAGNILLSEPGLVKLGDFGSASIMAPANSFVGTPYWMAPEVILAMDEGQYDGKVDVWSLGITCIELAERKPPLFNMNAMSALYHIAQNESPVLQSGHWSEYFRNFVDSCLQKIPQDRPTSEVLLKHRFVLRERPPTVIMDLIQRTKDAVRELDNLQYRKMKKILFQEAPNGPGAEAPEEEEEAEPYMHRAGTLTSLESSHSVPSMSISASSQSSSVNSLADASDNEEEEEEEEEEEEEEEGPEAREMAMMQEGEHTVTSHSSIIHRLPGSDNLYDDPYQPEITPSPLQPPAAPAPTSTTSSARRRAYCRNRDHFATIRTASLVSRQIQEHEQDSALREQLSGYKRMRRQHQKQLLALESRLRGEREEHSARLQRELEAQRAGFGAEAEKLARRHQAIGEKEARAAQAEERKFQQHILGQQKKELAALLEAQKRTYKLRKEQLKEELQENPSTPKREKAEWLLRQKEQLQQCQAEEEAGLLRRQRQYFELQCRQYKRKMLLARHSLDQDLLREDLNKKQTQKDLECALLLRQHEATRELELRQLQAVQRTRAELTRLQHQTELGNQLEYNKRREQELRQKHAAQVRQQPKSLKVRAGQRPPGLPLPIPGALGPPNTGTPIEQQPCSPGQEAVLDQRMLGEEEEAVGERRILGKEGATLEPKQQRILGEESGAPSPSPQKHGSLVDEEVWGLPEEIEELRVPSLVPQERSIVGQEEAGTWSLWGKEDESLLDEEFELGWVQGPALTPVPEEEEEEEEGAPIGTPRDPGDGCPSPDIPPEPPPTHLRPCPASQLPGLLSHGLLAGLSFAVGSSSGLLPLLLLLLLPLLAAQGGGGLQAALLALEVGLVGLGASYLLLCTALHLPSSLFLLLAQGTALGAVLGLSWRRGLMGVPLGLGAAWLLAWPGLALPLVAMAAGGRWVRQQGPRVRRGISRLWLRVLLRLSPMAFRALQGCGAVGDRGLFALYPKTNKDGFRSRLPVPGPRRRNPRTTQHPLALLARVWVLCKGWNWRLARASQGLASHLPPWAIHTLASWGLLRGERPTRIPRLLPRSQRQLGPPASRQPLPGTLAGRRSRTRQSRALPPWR

VPS34 = molecular target: T10, VPS34 (Homo sapiens, UniProt Q8NEB9); experiment: KINOMEscan; format: binding; details: read-out: % Ctrl
T10 construct: purchased DiscoveRx KINOMEscan

ZAK = molecular target: T11, ZAK (Homo sapiens, UniProt Q9NYL2); experiment: KINOMEscan; format: binding; details: read-out: % Ctrl
T11 construct: purchased DiscoveRx KINOMEscan
T11 sequence (Q9NYL2 whole entry): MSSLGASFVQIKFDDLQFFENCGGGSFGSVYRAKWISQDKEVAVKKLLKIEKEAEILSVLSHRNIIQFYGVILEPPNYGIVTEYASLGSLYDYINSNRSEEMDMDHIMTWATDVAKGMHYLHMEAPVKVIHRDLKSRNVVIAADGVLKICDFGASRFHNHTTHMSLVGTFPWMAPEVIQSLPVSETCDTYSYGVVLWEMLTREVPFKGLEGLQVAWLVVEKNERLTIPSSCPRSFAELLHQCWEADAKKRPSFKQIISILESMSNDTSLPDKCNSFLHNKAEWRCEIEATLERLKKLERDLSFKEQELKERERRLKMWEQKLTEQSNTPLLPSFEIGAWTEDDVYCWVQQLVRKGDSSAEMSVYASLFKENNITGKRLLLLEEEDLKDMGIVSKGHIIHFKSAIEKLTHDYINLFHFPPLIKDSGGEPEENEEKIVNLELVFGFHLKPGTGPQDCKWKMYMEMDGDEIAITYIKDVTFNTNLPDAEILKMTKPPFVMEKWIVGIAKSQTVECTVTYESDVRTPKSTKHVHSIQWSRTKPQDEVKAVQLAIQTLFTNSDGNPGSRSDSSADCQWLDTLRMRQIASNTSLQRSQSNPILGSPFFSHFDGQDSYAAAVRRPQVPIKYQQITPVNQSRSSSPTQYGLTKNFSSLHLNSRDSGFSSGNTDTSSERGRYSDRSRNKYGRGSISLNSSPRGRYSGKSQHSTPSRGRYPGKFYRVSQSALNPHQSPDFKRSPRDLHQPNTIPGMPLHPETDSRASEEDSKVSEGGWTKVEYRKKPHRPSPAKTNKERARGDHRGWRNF

ROCK2 = molecular target: T12, ROCK2 (Homo sapiens, UniProt O75116); experiment: KINOMEscan; format: binding; details: read-out: % Ctrl
T12 construct: purchased DiscoveRx KINOMEscan

ULK2 = molecular target: T13, ULK2 (Homo sapiens, UniProt Q8IYT8); experiment: KINOMEscan; format: binding; details: read-out: % Ctrl
T13 construct: purchased DiscoveRx KINOMEscan

PAK1 = molecular target: T14, PAK1 (Homo sapiens, UniProt Q13153); experiment: KINOMEscan; format: binding; details: read-out: % Ctrl
T14 construct: purchased DiscoveRx KINOMEscan
T14 sequence (Q13153 whole entry): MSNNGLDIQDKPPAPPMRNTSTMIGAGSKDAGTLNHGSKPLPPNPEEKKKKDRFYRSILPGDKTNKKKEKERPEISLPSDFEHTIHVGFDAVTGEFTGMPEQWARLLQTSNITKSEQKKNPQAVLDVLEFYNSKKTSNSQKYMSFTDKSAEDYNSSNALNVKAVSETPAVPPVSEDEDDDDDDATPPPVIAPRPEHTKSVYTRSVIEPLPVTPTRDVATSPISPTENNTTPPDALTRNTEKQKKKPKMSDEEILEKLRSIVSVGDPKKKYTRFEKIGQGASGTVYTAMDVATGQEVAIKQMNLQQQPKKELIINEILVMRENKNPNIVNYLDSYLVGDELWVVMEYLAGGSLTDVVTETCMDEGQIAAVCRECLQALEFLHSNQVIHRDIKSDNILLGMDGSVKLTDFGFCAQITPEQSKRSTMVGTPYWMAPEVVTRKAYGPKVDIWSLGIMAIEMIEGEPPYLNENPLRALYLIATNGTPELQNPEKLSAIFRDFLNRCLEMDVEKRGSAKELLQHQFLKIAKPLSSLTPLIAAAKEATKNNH

MUSK = molecular target: T15, MUSK (Homo sapiens, UniProt O15146); experiment: KINOMEscan; format: binding; details: read-out: % Ctrl
T15 construct: purchased DiscoveRx KINOMEscan

PIK3CA(E545A) = molecular target: T16, PIK3CA(E545A) (Homo sapiens, UniProt P42336, E545A); experiment: KINOMEscan; format: binding; details: read-out: % Ctrl
T16 construct: purchased DiscoveRx KINOMEscan
T16 sequence (P42336 whole entry E545A): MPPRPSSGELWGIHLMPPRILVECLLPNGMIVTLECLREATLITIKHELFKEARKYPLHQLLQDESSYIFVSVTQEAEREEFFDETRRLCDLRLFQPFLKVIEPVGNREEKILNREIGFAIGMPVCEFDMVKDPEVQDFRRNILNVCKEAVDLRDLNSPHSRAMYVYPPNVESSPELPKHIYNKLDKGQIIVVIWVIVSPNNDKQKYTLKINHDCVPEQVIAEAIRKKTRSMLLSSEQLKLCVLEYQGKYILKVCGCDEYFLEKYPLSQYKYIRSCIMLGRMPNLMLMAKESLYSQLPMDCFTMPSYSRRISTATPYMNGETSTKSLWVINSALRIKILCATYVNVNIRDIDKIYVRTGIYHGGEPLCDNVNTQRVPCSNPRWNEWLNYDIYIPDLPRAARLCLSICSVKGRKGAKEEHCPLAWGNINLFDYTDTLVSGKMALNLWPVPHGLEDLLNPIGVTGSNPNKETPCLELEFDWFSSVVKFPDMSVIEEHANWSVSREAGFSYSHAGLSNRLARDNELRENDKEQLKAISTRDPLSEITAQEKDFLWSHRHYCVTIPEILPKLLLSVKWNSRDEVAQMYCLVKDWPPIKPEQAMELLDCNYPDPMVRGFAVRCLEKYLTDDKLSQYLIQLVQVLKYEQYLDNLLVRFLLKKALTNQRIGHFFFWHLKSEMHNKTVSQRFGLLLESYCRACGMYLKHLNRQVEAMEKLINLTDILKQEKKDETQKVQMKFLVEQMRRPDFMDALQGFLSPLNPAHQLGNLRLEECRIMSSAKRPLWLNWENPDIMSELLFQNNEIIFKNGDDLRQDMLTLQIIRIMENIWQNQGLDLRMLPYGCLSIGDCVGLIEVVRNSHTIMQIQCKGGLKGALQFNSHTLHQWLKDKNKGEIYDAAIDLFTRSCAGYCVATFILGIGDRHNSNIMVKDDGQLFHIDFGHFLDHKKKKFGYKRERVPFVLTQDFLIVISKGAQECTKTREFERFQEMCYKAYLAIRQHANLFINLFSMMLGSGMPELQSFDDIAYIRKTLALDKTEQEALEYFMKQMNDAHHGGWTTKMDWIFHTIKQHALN

CDK4 = molecular target: T17, CDK4 (Homo sapiens, UniProt P11802); experiment: KINOMEscan; format: binding; details: read-out: % Ctrl
T17 construct: purchased DiscoveRx KINOMEscan

DYRK1B = molecular target: T18, DYRK1B (Homo sapiens, UniProt Q9Y463); experiment: KINOMEscan; format: binding; details: read-out: % Ctrl
T18 construct: purchased DiscoveRx KINOMEscan

EPHA4 = molecular target: T19, EPHA4 (Homo sapiens, UniProt P54764); experiment: KINOMEscan; format: binding; details: read-out: % Ctrl
T19 construct: purchased DiscoveRx KINOMEscan

Question: For COc1nc2ccc(NCC3CCN(C)CC3)nn2c1C(=O)Nc1cccc(OC(F)(F)F)c1 [Cpd 1], which EC50 (PDAC1 3D spheres) is on record?
Answer: ~2910 nM

Question: CN1CCC(CNc2ccc3ncc(C(=O)Nc4cccc(OC(F)(F)F)c4)n3n2)CC1 [Cpd 2] was tested. Which remaining binding at 1 µM (MARK1) did it give?
Answer: 100%

Question: What about the remaining binding at 1 µM (CDK4-cyclinD1) of the same molecule?
Answer: 100%

Question: What about the remaining binding at 1 µM (IGF1R) of the same molecule?
Answer: 100%

Question: And the remaining binding at 1 µM (LCK)?
Answer: 77%

Question: And the remaining binding at 1 µM (LATS1)?
Answer: 100%

Question: And the remaining binding at 1 µM (YANK2)?
Answer: 100%

Question: What about the remaining binding at 1 µM (EPHA7) of the same molecule?
Answer: 100%

Question: What about the remaining binding at 1 µM (CLK1) of the same molecule?
Answer: 100%

Question: What about the remaining binding at 1 µM (TAOK2) of the same molecule?
Answer: 100%

Question: And the remaining binding at 1 µM (VPS34)?
Answer: 75%

Question: What about the remaining binding at 1 µM (ZAK) of the same molecule?
Answer: 96%

Question: And the remaining binding at 1 µM (ROCK2)?
Answer: 94%

Question: What about the remaining binding at 1 µM (ULK2) of the same molecule?
Answer: 100%

Question: And the remaining binding at 1 µM (PAK1)?
Answer: 100%

Question: What about the remaining binding at 1 µM (MUSK) of the same molecule?
Answer: 99%

Question: What about the remaining binding at 1 µM (PIK3CA(E545A)) of the same molecule?
Answer: 100%

Question: What about the remaining binding at 1 µM (CDK4) of the same molecule?
Answer: 100%

Question: And the remaining binding at 1 µM (DYRK1B)?
Answer: 92%

Question: And the remaining binding at 1 µM (EPHA4)?
Answer: 88%
